How the values were obtained:
[1] = ORP of sodium borohydride solution over time after adding aldehyde donor; type: physicochemical
Description: Aqueous solutions containing sodium borohydride were mixed at 21° C. to obtain a solution having an initial borohydride content (as NaBH4) of 30-50 ppm, an alkalinity (as CaCO3) of 400 ppm, and a pH of 8.5-9.5. The temperature of the solution was maintained at 21° C. and the ORP of the solution was measured at specified time intervals. The procedure consisted of adding a known amount of aldehyde donor, such as dimethyloldimethylhydantoin or glyoxal, to the samples at a known molar ratio with respect to the borohydride content and following the time-dependence of the ORP.
(§1) For comparison, the residual total halogen (as Cl2) was analyzed without the use of dimethyloldimethylhydantoin.

[2] = Residual total halogen (DPD) after adding sodium hypochlorite to borohydride solution; type: physicochemical; conditions: for Total Halogen with DMDMH: borohydride solution treated with DMDMH; for Total Halogen without DMDMH: borohydride solution, no DMDMH
Description: The remaining halogen concentration was then measured by standard DPD total halogen methodologies over time.
as §1

[3] = 2 min after addition of sodium hypochlorite
[4] = 43 min after addition of sodium hypochlorite

Structure (SMILES)	ORP - DMDMH treated [1, 3] [mV]	ORP - DMDMH treated [1, 4] [mV]	Total Halogen with DMDMH [2, 3] [ppm as Cl2]	Total Halogen with DMDMH [2, 4] [ppm as Cl2]	Total Halogen without DMDMH [2, 3] [ppm as Cl2]	Total Halogen without DMDMH [2, 4] [ppm as Cl2]
CC1(C)C(=O)N(CO)C(=O)N1CO [DMDMH, dimethyloldimethylhydantoin]	−251	−77	1.59	1.33	–	–
OCl [sodium hypochlorite, reference compound]	–	–	–	–	<0.1	<0.1

— patent US8808500B2, “Method for the use of oxidants for microbial control under reducing conditions” (Lonza Inc., priority 2011, dated 2014)
